In publication PMC8466755, “GPCR Pharmacological Profiling of Aaptamine from the Philippine Sponge Stylissa sp. Extends Its Therapeutic Potential for Noncommunicable Diseases” (Molecules, 2021):

Legend:
OPRK1 = OPRK1 (Homo sapiens, UniProt P41145); test: PathHunter β-arrestin primary screen, antagonist mode (potentiator hit); type: cell-based; conditions: control agonist at EC80, negative inhibition = potentiation, read-out: % Activation or inhibition, primary screen
Method: (§1) Aaptamine (20 µM) was profiled in gpcrMAX panel biosensor assays (in agonist and antagonist modes) against a panel of 168 GPCRs. The assay was performed by DiscoverX Corporation (Fremont, CA) using PathHunter β -arrestin enzyme fragment complementation (EFC) technology, in a similar way to that described elsewhere. The PathHunter cell lines were taken from freezer stocks according to standard procedures. A total of 20 µL of cells were seeded into white 384-well plates and incubated at 37 °C for the appropriate time prior to testing.
(§2) For antagonist determination, PathHunter cells were preincubated with aaptamine followed by the addition of an agonist. In this assay format, the standard agonist was added at an EC80 concentration. To the plate that contained the cells, 5 µL of the 5X sample was added and incubated for 30 min at 37 °C or room temperature. After the incubation period, 5 µL of the 6X EC80 agonist in an assay buffer was added to the cells and incubated for additional 90 or 180 min at 37 °C or room temperature.

SSTR1 = SSTR1 (Homo sapiens, UniProt P30872); test: as above; type: cell-based; conditions: control agonist at EC80, negative inhibition = potentiation, read-out: % Activation or inhibition, primary screen
SSTR1, sequence (P30872 whole entry): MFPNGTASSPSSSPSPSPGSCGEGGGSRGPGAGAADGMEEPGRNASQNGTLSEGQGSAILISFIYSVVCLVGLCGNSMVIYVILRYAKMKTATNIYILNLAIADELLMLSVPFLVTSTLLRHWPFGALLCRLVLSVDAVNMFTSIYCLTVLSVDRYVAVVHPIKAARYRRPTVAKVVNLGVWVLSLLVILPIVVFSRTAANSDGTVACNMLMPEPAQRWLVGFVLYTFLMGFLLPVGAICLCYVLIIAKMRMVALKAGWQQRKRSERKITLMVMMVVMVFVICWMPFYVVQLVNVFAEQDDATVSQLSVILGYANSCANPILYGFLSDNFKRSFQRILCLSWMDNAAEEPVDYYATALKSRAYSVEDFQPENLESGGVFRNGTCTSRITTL
Method: as §1, §2

CXCR3 = target: T1, CXCR3 (Homo sapiens, UniProt P49682); test: as above; type: cell-based; conditions: control agonist at EC80, negative inhibition = potentiation, read-out: Primary Screen Maximal Response, % Inhibition or Activation
T1 sequence (P49682 1-368): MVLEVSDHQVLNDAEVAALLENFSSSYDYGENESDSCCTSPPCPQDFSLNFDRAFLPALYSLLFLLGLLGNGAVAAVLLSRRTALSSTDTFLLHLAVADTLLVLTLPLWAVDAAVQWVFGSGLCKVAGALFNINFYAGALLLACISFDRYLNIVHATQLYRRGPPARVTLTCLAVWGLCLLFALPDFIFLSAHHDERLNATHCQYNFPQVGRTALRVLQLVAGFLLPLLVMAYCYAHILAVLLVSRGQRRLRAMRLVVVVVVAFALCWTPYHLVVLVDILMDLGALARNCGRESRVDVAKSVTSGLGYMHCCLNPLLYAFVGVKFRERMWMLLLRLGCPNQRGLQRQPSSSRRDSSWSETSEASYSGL
Method: as §1, §2

HTR1E = HTR1E (Homo sapiens, UniProt P28566); test: as above; type: cell-based; conditions: control agonist at EC80, negative inhibition = potentiation, read-out: % Activation or inhibition, primary screen
HTR1E, sequence (P28566 whole entry): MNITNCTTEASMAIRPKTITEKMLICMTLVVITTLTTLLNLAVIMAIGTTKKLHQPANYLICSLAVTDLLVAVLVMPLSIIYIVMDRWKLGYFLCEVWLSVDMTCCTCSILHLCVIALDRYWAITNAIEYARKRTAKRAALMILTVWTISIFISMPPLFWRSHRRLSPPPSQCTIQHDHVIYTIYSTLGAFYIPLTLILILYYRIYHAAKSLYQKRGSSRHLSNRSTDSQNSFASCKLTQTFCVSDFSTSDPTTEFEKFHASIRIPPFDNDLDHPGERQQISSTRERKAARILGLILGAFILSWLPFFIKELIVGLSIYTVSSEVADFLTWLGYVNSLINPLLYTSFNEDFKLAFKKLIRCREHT
Method: as §1, §2

CCR3 = target: T2, CCR3 (Homo sapiens, UniProt P51677); test: as above; type: cell-based; conditions: control agonist at EC80, negative inhibition = potentiation, read-out: Primary Screen Maximal Response, % Inhibition or Activation
T2 sequence (P51677 1-355): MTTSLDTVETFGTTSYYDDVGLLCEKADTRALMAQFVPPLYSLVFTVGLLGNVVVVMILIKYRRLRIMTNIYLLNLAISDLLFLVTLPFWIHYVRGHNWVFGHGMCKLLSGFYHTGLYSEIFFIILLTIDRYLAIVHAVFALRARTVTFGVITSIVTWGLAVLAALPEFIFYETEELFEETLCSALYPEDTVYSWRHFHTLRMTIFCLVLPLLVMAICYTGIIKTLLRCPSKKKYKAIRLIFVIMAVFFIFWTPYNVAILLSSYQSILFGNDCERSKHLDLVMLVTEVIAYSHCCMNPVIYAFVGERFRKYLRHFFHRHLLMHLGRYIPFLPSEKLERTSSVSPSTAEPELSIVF
Method: as §1, §2

CXCR7 = CXCR7 (Homo sapiens, UniProt P25106); test: PathHunter β-arrestin assay, agonist mode; type: cell-based
CXCR7, sequence (P25106 whole entry): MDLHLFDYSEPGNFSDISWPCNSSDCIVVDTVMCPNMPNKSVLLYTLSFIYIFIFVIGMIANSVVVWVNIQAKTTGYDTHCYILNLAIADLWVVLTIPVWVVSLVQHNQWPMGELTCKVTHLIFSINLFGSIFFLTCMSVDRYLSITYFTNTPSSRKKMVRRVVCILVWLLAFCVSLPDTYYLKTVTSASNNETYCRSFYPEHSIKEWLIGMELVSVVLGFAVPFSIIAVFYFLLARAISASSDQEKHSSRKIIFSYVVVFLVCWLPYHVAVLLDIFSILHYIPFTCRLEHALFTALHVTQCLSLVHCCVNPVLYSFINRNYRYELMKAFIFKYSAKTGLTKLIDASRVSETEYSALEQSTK
Method: For agonist determination, aaptamine was incubated with PathHunter cell lines to induce a response. To increase the concentration, intermediate dilution from 20 µM of aaptamine was performed to generate a 5X sample in an assay buffer. Then, 5 µL of 5X sample was added to the plate with PathHunter cells and incubated for 90 or 180 min at 37 °C or room temperature. The percentage activity of aaptamine was calculated following this formula: % activity = 100% × (mean RLU of test sample − mean RLU of vehicle control)/(mean MAX control ligand − mean RLU of vehicle control).
(§3) The assays were performed at 10-point concentrations using three-fold serial dilutions in duplicate. For all the assay formats, the final assay vehicle concentration was 1%.

[1] = target: T3, purified 20S proteasome from human erythrocytes (Homo sapiens, UniProt P28074); test: 20S proteasome chymotrypsin-like activity assay (Suc-LLVY-AMC); type: biochemical
T3 construct: purified 20S proteasome from human erythrocyte; purchased Enzo Life Sciences; host or cells: human erythrocytes (tissue-purified)
Method: Aaptamine was tested against HCT116 colon cancer cells and cell viability was assessed after 48 h using an MTT (3-(4,5-dimethyl dimethylthiazol-2-yl)-2,5-diphenyltetrazolium bromide) assay. […] The results agreed with the findings of Kobayashi et al. that aaptamine at concentrations of 20–50 µM increased the expression of the cyclin-dependent kinase inhibitor p21, a protein known to act as a negative regulator of cell cycle progression, thus preventing cell proliferation. […] To alternatively explain the activity of aaptamine, we tested the compound for its ability to inhibit the chymotrypsin-like activity of a purified 20S proteasome from human erythrocytes. Proteasome inhibitors are validated anticancer agents. Aaptamine was able to inhibit the enzyme activity by 41% at 50 µM (Figure 2b). […] In our study, aaptamine had similar IC50 values for cancer cell growth inhibition and proteasome inhibition in vitro (~50 µM).
The 20S proteasome assay kit from Enzo Life Sciences (NY, USA) is a fluorogenic, non-radioactive assay designed to measure the chymotrypsin-like protease activity of purified 20S proteasome from human erythrocyte. […] The fluorescence was then measured at an excitation of 360 nm and emission of 460 nm using a SpectraMax M5 plate reader (Molecular Device). The data were recorded every 2 min for 20 min. […]

ADRB2 = ADRB2 (Homo sapiens, UniProt P07550); test: PathHunter β-arrestin assay, antagonist mode; type: cell-based
ADRB2, sequence (P07550 whole entry): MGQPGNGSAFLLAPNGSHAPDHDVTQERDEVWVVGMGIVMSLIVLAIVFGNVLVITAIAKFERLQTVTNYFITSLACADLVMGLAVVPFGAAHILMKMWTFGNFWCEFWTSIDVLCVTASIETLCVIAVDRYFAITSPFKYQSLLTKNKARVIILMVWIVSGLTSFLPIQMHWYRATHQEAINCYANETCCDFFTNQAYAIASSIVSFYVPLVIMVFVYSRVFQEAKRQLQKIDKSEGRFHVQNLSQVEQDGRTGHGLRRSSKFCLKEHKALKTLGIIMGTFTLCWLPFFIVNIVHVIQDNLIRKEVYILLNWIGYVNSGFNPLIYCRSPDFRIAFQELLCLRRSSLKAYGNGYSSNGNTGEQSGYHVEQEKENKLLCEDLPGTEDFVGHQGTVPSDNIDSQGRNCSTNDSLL
Method: The assay was performed by DiscoverX Corporation (Fremont, CA) using PathHunter β -arrestin enzyme fragment complementation (EFC) technology, in a similar way to that described elsewhere [35, 36]. The PathHunter cell lines were taken from freezer stocks according to standard procedures. A total of 20 µL of cells were seeded into white 384-well plates and incubated at 37 °C for the appropriate time prior to testing.
as §3

[2] = tested on: Saccharomyces cerevisiae (BY4741); test: Yeast growth inhibition assay; type: cell-based; conditions: up to 50 µM, 24 h
Source text: Each treatment was done in triplicate.

proteasome = tested on: proteasome; design: method as in PMID 20451377; conditions: read-out: proteasome inhibitory activity IC50; cited from earlier work

OPRK1, sequence (P41145 whole entry, the tested form may be a part): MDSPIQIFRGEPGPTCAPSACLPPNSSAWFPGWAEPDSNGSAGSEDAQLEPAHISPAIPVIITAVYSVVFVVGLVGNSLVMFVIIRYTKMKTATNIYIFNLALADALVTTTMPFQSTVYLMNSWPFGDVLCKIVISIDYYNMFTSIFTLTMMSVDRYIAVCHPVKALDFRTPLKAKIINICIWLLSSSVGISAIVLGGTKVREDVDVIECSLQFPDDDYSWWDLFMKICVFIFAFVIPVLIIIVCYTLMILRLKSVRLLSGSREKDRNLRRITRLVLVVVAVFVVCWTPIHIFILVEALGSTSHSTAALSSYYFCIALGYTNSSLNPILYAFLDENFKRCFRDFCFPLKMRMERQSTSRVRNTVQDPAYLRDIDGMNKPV

For `COc1cc2ccnc3c2c(c1OC)NC=C3` [aaptamine], the inhibition at 20 µM (OPRK1) was -46%, the inhibition at 20 µM (SSTR1) was -46% and the Emax at 20 µM (CXCR3) was 69%. The inhibition at 20 µM (HTR1E) was -47%, the Emax at 20 µM (CCR3) was 49% and the “Dose-Response Maximal Response, % Activation” value (CXCR7; dose-response analysis) was 122.57%. It also gave an Emax (CXCR7; dose-response analysis, read-out: Dose-Response Maximal Response, % Activation) of 123%, an EC50 (CXCR7; dose-response, agonist mode) of 6.2 µM and an inhibition at 50 µM ([1]; 50 µM, 10 min preincubation, read-out: inhibition of enzyme activity (chymotrypsin-like)) of 41%. For the same compound, the IC50 ([1]; read-out: IC50 proteasome inhibition in vitro) was about 50 µM, the Emax (ADRB2; dose-response analysis, read-out: Dose-Response Maximal Response, % Inhibition) was 96.5% and the IC50 (ADRB2; dose-response, antagonist mode) was 0.2 µM. The “selectivity for ADRB2 over ADRA2C” value (ADRB2; from IC50 values) was over 50 fold, the growth inhibitory activity [2] was “did not observe growth inhibitory activity” and the IC50 (proteasome) was 19 µM.
